Assays:
αvβ3 integrin = αvβ3 integrin (Homo sapiens, UniProt P05106+P06756); assay: Assay for the inhibition of αvβ3 integrin binding (vitronectin as ligand); parameters: purchased Chemicon International, Inc., USA; conditions: inhibition of specific binding of biotinylated human vitronectin to immobilized αvβ3 integrin
Experimental: Experiment 1: Assay for the Inhibition of αvβ3 integrin binding
This experiment was carried out based on the method described in […].
Purified human αvβ3 integrin (Chemicon International, Inc., USA) was adjusted to a concentration of 1 μg/ml with TBS^++ [20 mM Tris-HCl (pH 7.4), 150 mM NaCl, 1 mM CaCl2, 1 mM MgCl2], and the diluted solution was added to plates (Labsystems, Finland) at 50 μl/well. The plate was left at 4° C. overnight for immobilization of the αvβ3 integrin. All subsequent steps were done at 25° C., and the procedure for each well was described hereafter.
The solution was discarded, and then 200 μl of TBS^++ containing 1% BSA (Wako Pure Chemical Industries, Ltd., Japan) was added to the well and left for one hour for blocking. The well was washed with a wash solution (TBS^++ containing 0.01% Tween 20) 4 times, and 50 μl of a reaction solution (TBS^++ containing 0.1% BSA and 0.01% Tween 20) was added to the well. Subsequently, 25 μl of a test compound solution adjusted to each concentration with the reaction solution was added, and then mixed with 25 μl of biotinylated (Amersham Pharmacia Biotech, UK) human vitronectin (Gibco BRL, USA) adjusted to 0.4 μg/ml with the reaction solution. The mixture was reacted for 2 hours. After washing 4 times with the wash solution, 100 μl of peroxidase-labeled streptoavidin (Amersham Pharmacia Biotech, UK) diluted 1:500 with the reaction solution was added to the well. Following 30 minutes reaction, the well was washed 4 times with the wash solution, and 100 μl of a TMB substrate solution (Bio-Rad Laboratories, USA) was added to the well. Color was developed for 20 minutes and the reaction was stopped by adding 100 μl of 0.5 M sulfuric acid.
(§1) The absorbance at 450 nm was measured with a plate reader (Molecular Devices, USA) to obtain a total binding. To obtain a nonspecific binding, EDTA adjusted to 20 mM with the reaction solution was added instead of the test compound solution. A specific binding was calculated by subtracting the nonspecific binding from the total binding.

αIIbβ3 integrin = biological target: T1, αIIbβ3 integrin (Homo sapiens, UniProt P05106+P08514); assay: Assay for the inhibition of αIIbβ3 integrin binding (fibrinogen as ligand, integrin captured from platelet lysate); conditions: inhibition of specific binding of biotinylated fibrinogen to αIIbβ3 integrin from human platelet lysate
T1 construct: from tissue; host or cells: human platelets (Triton X-100 lysate)
T1 sequence (P08514 32-887 limits assumed): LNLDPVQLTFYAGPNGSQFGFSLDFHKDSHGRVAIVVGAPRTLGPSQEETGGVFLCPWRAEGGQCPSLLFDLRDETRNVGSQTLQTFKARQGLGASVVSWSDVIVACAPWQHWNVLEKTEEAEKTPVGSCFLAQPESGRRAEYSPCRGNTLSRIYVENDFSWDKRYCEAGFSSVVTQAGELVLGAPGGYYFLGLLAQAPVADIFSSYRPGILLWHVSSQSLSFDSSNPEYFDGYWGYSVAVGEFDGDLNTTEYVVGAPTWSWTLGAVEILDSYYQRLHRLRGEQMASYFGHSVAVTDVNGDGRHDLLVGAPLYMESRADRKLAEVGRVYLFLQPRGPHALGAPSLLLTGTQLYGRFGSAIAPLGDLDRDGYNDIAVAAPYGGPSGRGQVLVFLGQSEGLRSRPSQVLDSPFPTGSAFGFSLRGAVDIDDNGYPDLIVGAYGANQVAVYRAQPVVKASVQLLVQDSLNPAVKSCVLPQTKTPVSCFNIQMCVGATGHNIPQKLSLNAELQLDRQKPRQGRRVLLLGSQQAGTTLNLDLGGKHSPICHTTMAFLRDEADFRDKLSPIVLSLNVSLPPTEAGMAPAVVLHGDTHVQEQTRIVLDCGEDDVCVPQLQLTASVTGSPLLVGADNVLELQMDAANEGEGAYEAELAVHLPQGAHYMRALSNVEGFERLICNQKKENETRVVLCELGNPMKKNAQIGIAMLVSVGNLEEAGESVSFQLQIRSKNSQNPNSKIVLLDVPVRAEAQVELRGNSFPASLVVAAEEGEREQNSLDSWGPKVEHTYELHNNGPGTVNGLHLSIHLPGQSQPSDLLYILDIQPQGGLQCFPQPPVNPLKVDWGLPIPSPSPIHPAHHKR
T1 sequence (P08514 891-1039 partner limits assumed): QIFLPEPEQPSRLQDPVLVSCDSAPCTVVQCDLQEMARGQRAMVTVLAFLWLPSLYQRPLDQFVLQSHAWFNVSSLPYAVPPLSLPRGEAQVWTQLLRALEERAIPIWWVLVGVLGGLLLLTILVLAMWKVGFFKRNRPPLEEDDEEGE
T1 sequence (P05106 27-788): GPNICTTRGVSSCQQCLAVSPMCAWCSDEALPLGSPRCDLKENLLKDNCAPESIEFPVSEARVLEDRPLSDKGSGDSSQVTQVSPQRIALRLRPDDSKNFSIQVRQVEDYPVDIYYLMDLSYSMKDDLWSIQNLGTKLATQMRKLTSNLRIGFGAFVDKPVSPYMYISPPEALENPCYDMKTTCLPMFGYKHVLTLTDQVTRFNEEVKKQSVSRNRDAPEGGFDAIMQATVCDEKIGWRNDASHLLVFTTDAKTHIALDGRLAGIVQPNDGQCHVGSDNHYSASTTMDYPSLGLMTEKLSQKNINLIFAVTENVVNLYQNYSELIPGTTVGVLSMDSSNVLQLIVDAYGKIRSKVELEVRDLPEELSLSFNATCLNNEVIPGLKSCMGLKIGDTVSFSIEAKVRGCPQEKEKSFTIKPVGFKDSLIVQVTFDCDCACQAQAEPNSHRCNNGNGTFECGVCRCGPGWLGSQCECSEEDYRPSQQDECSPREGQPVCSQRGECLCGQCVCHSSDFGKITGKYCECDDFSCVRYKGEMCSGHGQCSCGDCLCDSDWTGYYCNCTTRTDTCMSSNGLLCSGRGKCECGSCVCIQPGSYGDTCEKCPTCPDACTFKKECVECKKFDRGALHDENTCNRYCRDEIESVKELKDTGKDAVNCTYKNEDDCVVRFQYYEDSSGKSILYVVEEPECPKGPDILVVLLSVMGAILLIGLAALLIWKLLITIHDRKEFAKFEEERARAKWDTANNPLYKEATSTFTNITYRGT
Experimental: Experiment 2: Assay for the Inhibition of αIIbβ3 Integrin Binding
This experiment was carried out based on the method described in Thromb. Haemostasis, 75, 339 (1996), Blood, 93, 2559 (1999), using fibrinogen as a ligand. According to the method described in the above literatures, assay for the inhibition of αIIbβ3 integrin binding can be achieved by capturing αIIbβ3 integrin from platelet lysate with the use of an activated antibody against αIIbβ3 integrin.
Human platelets were isolated in a conventional manner. At 25° C., the isolated platelets were adjusted to a concentration of 1.25×10^9/ml with TBS+[50 mM Tris-HCl (pH 7.4), 150 mM NaCl, 2 mM CaCl2], and then ⅛ volume of TBS^+ containing 2 mM leupepsin and 10 mM PMSF was added and stirred gently. Nest, 1/9 volume of TBS+ containing 10% Triton X-100 was added and stirred gently. After standing on ice for 30 minutes, a platelet lysate was prepared from the mixture by discarding the insoluble fraction with centrifugation (10,000 g, 15 minutes).
Anti-mouse IgG goat antibody (Jackson Immunoresearch Laboratories, Inc., USA) was adjusted to a concentration of 5 μg/ml with sodium carbonate buffer (pH 9.6) and added to plates at 50 μl/well. The plate was left at 4° C. overnight for immobilization of the antibody. All subsequent steps were done at 25° C., and the procedure for each well was described hereafter.
The well was washed once with TBS^+, and then 200 μl of TBS^+ containing 5% BSA was added to the well and left for one hour for blocking. The well was washed with a reaction solution (TBS^+ containing 0.1% BSA and 0.05% Triton X-100) 4 times, and then 50 μl of anti-human αIIbβ3 integrin activated monoclonal antibody (TAKARA SHUZO CO., LTD, Japan, PT25-2 strain) adjusted to 5 μg/ml with the reaction solution was added to the well. After one hour reaction, the well was washed 4 times with the reaction solution, and 50 μl of the platelet lysate diluted 1:2 with the reaction solution was added to the well. Following 2 hours reaction, the well was washed 4 times with the reaction solution, and 50 μl of the reaction solution was added to the well. Subsequently, 25 μl of a test compound solution adjusted to each concentration with the reaction solution was added, and then mixed with 25 μl of biotinylated fibrinogen (Calbiochem, Germany) adjusted to 2 μg/ml with the reaction solution. The mixture was reacted for one hour. After washing 4 times with the reaction solution, 100 μl of alkaline phosphatase-labeled streptoavidin (Gibco BRL, USA) diluted 1:500 with the reaction solution was added to the well. Following 30 minutes reaction, the well was washed 4 times with the wash solution. Next, 50 μl of the NaDPH solution (Invitrogen, former company name: Gibco BRL, USA) was added and reacted for 20 minutes, and then 50 μl of an amplification solution containing diaphorase and alcohol dehydrogenase (Invitrogen, former company name: Gibco BRL, USA) was added. Color was developed for 20 minutes and the reaction was stopped by adding 50 μl of 0.5 M sulfuric acid.
as §1, with “495” for “450”, “reader” for “reader (Molecular Devices, USA)”

Sequence of αvβ3 integrin (P06756 31-889 limits assumed): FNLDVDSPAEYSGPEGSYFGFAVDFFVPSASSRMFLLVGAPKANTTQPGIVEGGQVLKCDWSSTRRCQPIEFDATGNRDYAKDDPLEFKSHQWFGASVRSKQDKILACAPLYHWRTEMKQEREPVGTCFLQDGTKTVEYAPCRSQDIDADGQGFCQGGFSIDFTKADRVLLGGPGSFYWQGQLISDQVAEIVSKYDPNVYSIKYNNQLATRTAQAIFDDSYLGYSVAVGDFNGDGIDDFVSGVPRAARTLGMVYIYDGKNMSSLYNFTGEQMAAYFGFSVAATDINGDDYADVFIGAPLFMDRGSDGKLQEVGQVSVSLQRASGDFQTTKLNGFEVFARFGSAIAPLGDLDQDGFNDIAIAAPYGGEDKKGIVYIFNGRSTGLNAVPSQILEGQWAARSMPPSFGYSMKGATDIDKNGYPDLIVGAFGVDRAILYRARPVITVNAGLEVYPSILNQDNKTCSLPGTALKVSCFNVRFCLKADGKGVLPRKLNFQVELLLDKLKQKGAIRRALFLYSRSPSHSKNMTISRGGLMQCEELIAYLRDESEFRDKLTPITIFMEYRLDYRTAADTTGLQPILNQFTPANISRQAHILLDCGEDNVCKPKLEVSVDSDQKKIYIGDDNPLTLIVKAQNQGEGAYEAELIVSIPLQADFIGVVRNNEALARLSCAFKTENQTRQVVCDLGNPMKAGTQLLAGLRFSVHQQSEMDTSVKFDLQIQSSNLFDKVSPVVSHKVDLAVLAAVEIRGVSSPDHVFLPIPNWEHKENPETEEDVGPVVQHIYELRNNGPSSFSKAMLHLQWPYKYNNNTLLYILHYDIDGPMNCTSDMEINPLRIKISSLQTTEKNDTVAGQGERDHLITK
Sequence of αvβ3 integrin (P06756 891-1048 partner limits assumed): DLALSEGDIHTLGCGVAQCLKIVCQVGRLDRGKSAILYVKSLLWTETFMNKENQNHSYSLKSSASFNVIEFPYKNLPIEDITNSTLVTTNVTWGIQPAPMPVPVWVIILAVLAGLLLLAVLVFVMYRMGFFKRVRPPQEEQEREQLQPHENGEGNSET
Sequence of αvβ3 integrin (P05106 27-788): as the sequence (P05106 27-788) above

Compound | IC50 (αvβ3 integrin) | IC50 (αIIbβ3 integrin)
CC(C)COC(=O)N[C@@H](CCC(=O)N1CCN(c2cccc(NC3=NCC(C)(C)CN3)c2)CC1)C(=O)O [Ex. 126] | 0.38 nM | –
O=C(Cc1ccccc1)N[C@@H](CCC(=O)N1CCN(c2cccc(NC3=NCCCN3)c2)CC1)C(=O)O [Ex. 139] | 6.8 nM | –
O=C(N[C@@H](CNC(=O)C1CCN(c2cc(NC3=NCC(F)CN3)ccn2)CC1)C(=O)O)OCc1ccccc1 (stereo partly drawn) [Ex. 160, (2S)-2-benzyloxycarbonylamino-3-[[1-[4-(5-fluoro-1,4,5,6-tetrahydropyrimidin-2-yl)aminopyridin-2-yl]piperidin-4-yl]carbonylamino]-propanoic acid] | 0.046 nM | 67 nM
CCCCOC(=O)N[C@@H](CNC(=O)C1CCN(c2cccc(NC3=NCCCN3)c2)CC1)C(=O)O [Ex. 87, (2S)-2-butoxycarbonylamino-3-[[1-[3-(1,4,5,6-tetrahydropyrimidin-2-yl)aminophenyl]piperidin-4-yl]carbonylamino]propanoic acid] | 0.1 nM | 110 nM
O=C(N[C@@H](CNC(=O)C1CCN(c2cccc(NC3=NCC(F)CN3)c2)CC1)C(=O)O)OCc1ccccc1 (stereo partly drawn) [Ex. 13, (2S)-2-benzyloxycarbonylamino-3-[[1-[3-(5-fluoro-1,4,5,6-tetrahydropyrimidin-2-yl)aminophenyl]piperidin-4-yl]carbonylamino]-propanoic acid] | 0.042 nM | 59 nM
O=C(N[C@@H](CNC(=O)N1CCN(c2cccc(NC3=NCCCN3)c2)CC1)C(=O)O)OCc1ccccc1 [Ex. 145, (2S)-2-benzyloxycarbonylamino-3-[[4-[3-(1,4,5,6-tetrahydropyrimidin-2-yl)aminophenyl]piperazin-1-yl]carbonylamino]-propanoic acid] | 0.041 nM | 380 nM
O=C(N[C@@H](CCC(=O)N1CCN(c2cc(NC3=NCCCN3)ccc2F)CC1)C(=O)O)OCc1ccccc1 [Ex. 155, (2S)-2-benzyloxycarbonylamino-5-[4-[2-fluoro-5-(1,4,5,6-tetrahydropyrimidin-2-yl)aminophenyl]piperazin-1-yl]-5-oxopentanoic acid] | 0.077 nM | –
O=C(N[C@@H](CNC(=O)C1CCN(c2cccc(NC3=NCCCCN3)c2)CC1)C(=O)O)OCc1ccccc1 [Ex. 10, (2S)-2-benzyloxycarbonylamino-3-[[1-[3-(1H-4,5,6,7-tetrahydro-1,3-diazepin-2-yl)aminophenyl]piperidin-4-yl]carbonylamino]propanoic acid] | 0.075 nM | 74 nM
O=C(N[C@@H](CCC(=O)N1CCN(c2cccc(NC3=NCCCCN3)c2)CC1)C(=O)O)OCc1ccccc1 [Ex. 123] | 0.056 nM | 1600 nM
CC(C)COC(=O)N[C@@H](CNC(=O)C1CCN(c2cccc(NC3=NCCCN3)c2)CC1)C(=O)O [Ex. 92, (2S)-2-isobutoxycarbonylamino-3-[[1-[3-(1,4,5,6-tetrahydropyrimidin-2-yl)aminophenyl]piperidin-4-yl]carbonylamino]propanoic acid] | 0.066 nM | 72 nM
Cc1cc(N2CCC(C(=O)NC[C@H](NC(=O)OCc3ccccc3)C(=O)O)CC2)nc(NC2=NCCCN2)n1 [Ex. 150, (2S)-2-benzyloxycarbonylamino-3-[[1-[2-(1,4,5,6-tetrahydropyrimidin-2-yl)amino-6-methylpyrimidin-4-yl]piperidin-4-yl]-carbonylamino]propanoic acid] | 0.081 nM | 52 nM
O=C(N[C@@H](CCC(=O)N1CCN(c2cccc(NC3=NCC(F)CN3)c2)CC1)C(=O)O)OCc1ccccc1 (stereo partly drawn) [Ex. 124, (2S)-2-benzyloxycarbonylamino-5-[4-[3-(5-fluoro-1,4,5,6-tetrahydropyrimidin-2-yl)aminophenyl]piperazin-1-yl]-5-oxopentanoic acid] | 0.063 nM | 540 nM
CC1(C)CN=C(Nc2cccc(N3CCC(C(=O)NC[C@H](NC(=O)OCc4ccccc4)C(=O)O)CC3)c2)NC1 [Ex. 11, (2S)-2-benzyloxycarbonylamino-3-[[1-[3-(5,5-dimethyl-1,4,5,6-tetrahydropyrimidin-2-yl)aminophenyl]piperidin-4-yl]carbonylamino]-propanoic acid] | 0.14 nM | 87 nM
O=C(NCc1ccccc1)Nc1cccc(N2CCC(C(=O)NC[C@H](NC(=O)OCc3ccccc3)C(=O)O)CC2)c1 [Ex. 30, (2S)-3-{[1-[3-(benzylaminocarbonyl)aminophenyl]-piperidin-4-yl}carbonylamino]-2-(benzyloxycarbonylamino)propanoic acid] | 5.1 nM | 4600 nM
O=C(N[C@@H](CNC(=O)C1CCN(c2cccc(NC3=NCCN3)c2)CC1)C(=O)O)OCc1ccccc1 [Ex. 9, (2S)-2-benzyloxycarbonylamino-3-[[1-[3-(2-imidazolin-2-yl)aminophenyl]piperidin-4-yl]carbonylamino]propanoic acid] | 0.059 nM | 54 nM
CC(C)COC(=O)N[C@@H](CNC(=O)C1CCN(c2cccc(NC3=NCC(F)CN3)c2)CC1)C(=O)O (stereo partly drawn) [Ex. 19, (2S)-2-isobutoxycarbonylamino-3-[[1-[3-(5-fluoro-1,4,5,6-tetrahydropyrimidin-2-yl)aminophenyl]piperidin-4-yl]carbonylamino]-propanoic acid] | 0.032 nM | 100 nM
CCOC(=O)N[C@@H](CCC(=O)N1CCN(c2cccc(NC3=NCCCN3)c2)CC1)C(=O)O [Ex. 136] | 0.59 nM | –
CCNC(=O)N[C@@H](CCC(=O)N1CCN(c2cccc(NC3=NCCCN3)c2)CC1)C(=O)O [Ex. 142] | 3.6 nM | –
CC(C)COC(=O)N[C@@H](CCC(=O)N1CCN(c2cccc(NC3=NCCCN3)c2)CC1)C(=O)O [Ex. 138, (2S)-2-isobutoxycarbonylamino-5-[4-[3-(1,4,5,6-tetrahydropyrimidin-2-yl)aminophenyl]piperazin-1-yl]-5-oxopentanoic acid] | 0.32 nM | –
CC(C)COC(=O)N[C@@H](CCC(=O)N1CCN(c2cccc(NC3=NCC(O)CN3)c2)CC1)C(=O)O (some centres unmarked) [Ex. 128] | 0.3 nM | –
O=C(NCc1ccccc1)N[C@@H](CCC(=O)N1CCN(c2cccc(NC3=NCCCN3)c2)CC1)C(=O)O [Ex. 143] | 1.4 nM | –
CC(C)COC(=O)N[C@@H](CCC(=O)N1CCN(c2cccc(NC3=NCC(F)CN3)c2)CC1)C(=O)O (stereo partly drawn) [Ex. 127, (2S)-2-Isobutoxycarbonylamino-5-[4-[3-(5-fluoro-1,4,5,6-tetrahydropyrimidin-2-yl)aminophenyl]piperazin-1-yl]-5-oxopentanoic acid] | 0.055 nM | –
